Source: PMC4829233, “Identification of Novel Chemical Scaffolds Inhibiting Trypanothione Synthetase from Pathogenic Trypanosomatids” (PLoS Neglected Tropical Diseases, 2016)
Where “and” joins values, the source holds several entries; their conditions need not be identical. Equal values may be shown once. Read-outs that look alike come from different tables or passages of the source.

Experiments:
[1] = target: T. b. brucei trypanothione synthetase (TbTryS) (Trypanosoma brucei brucei, UniProt Q8IEX1); experiment: biochemical; details: end-point BIOMOL GREEN assay; competes with ATP; read-out: apparent Ki ADP, His-tagged TbTryS 427 (MITat1.4)
[2] = target: L. infantum trypanothione synthetase (LiTryS) (Leishmania infantum, UniProt A4I2Z3); experiment: biochemical; format: biochemical; details: end-point BIOMOL GREEN assay; competes with ATP; read-out: apparent Ki ADP, LiTryS JPCM5 (His-tagged)
[3] = target: T. cruzi trypanothione synthetase (TcTryS) (Trypanosoma cruzi, UniProt Q9GT49); details: read-out: apparent Ki ADP, TcTryS strain Tulahuen 0 (His-tagged); end-point BIOMOL GREEN assay; competes with ATP
CfGspS = details: ref [64]; cited from earlier work
[4] = target: TcTryS (Trypanosoma cruzi trypanothione synthetase) (Trypanosoma cruzi, UniProt Q9GT49); experiment: biochemical; format: biochemical; details: read-out: % TcTryS inhibition ± 2σn-1
[5] = target: LiTryS (Leishmania infantum trypanothione synthetase) (Leishmania infantum, UniProt A4I2Z3); experiment: biochemical; format: biochemical
[6] = target: TbTryS (Trypanosoma brucei trypanothione synthetase) (Trypanosoma brucei brucei, UniProt Q8IEX1); experiment: biochemical
[7] = tested on: bloodstream Trypanosoma brucei brucei; experiment: Proliferation/cytotoxicity assay, infective T. b. brucei; format: cell-based; details: 24 h, read-out: T. b. Brucei EC50
[8] = tested on: Leishmania infantum promastigotes; experiment: Proliferation/cytotoxicity assay, L. infantum promastigotes; format: cell-based; details: 24 h, promastigotes
Procedure: All assays were performed in duplicates or triplicates.
Leishmania infantum promastigotes were cultured at 28 °C in RPMI 1640 Glutamax supplemented with 10% (v/v) FCS, 10 U ml^-1 penicillin, 10 µg ml^-1 streptomycin and 25 mM HEPES sodium salt pH 7.4. […] Twenty four hours later the number of living parasites was estimated by cell counting under the light microscope using a Neubauer chamber and viability calculated as percentage relative to cultures incubated with the vehicle alone.

[9] = tested on: L. infantum promastigotes; experiment: Analysis of intracellular thiols; format: cell-based, Leishmania infantum
Procedure: The method is a modified version of that described in [62]. Briefly, L. infantum promastigotes or bloodstream T. b. brucei (WT and RNAi-TryS cell lines) treated or not with compounds (MOL2008 or EAP1-47, respectively) for 24 h were harvested by centrifugation (2000g, 10 min at 4°C), washed twice with PBS and resuspended at a density of 10^8 cells/0.1 mL of 40 mM Hepes pH 8.0 and 2 mM mono-bromobimane in methanol. After incubation at 70°C for 3 minutes, the samples were cooled on ice, then added of 100 μL 4 M methanesulfonic acid (adjusted to pH 1.5 with LiOH) and incubated overnight at 4°C. The supernatant containing the derivatized low molecular mass thiols was centrifuged at 13000g 40 min at 0°C.

TryS from C. fasciculata = tested on: TryS from C. fasciculata; set-up: method as in earlier work; details: ref [10]; cited from earlier work
[10] = tested on: Leishmania infantum promastigotes; set-up: method as in PMID 24853758; details: ref [20], read-out: L. infantum EC50; cited from earlier work
LiTryS = tested on: LiTryS; set-up: method as in PMID 24853758; details: ref [20]; cited from earlier work
[11] = n = 4, read-out: LiTryS IC50, representative dose-response plot

Sequence of TbTryS (Trypanosoma brucei trypanothione synthetase) (Q8IEX1 1-627): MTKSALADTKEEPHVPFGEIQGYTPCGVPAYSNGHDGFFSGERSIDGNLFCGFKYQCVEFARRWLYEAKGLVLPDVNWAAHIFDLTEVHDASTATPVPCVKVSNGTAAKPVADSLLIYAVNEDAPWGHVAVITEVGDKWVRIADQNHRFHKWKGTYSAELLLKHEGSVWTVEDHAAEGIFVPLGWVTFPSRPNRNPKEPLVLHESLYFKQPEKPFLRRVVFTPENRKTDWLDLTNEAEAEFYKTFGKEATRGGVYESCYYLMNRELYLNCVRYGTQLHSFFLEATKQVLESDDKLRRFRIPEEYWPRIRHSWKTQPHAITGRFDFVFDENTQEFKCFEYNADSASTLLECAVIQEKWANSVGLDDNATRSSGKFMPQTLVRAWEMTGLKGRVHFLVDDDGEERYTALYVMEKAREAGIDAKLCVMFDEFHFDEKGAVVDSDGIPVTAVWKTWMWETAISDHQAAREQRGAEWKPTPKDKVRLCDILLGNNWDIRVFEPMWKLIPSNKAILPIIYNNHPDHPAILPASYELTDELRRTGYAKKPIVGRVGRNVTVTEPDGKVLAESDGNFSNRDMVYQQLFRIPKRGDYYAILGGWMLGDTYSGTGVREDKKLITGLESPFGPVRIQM
Sequence of LiTryS (Leishmania infantum trypanothione synthetase) (A4I2Z3 1-652): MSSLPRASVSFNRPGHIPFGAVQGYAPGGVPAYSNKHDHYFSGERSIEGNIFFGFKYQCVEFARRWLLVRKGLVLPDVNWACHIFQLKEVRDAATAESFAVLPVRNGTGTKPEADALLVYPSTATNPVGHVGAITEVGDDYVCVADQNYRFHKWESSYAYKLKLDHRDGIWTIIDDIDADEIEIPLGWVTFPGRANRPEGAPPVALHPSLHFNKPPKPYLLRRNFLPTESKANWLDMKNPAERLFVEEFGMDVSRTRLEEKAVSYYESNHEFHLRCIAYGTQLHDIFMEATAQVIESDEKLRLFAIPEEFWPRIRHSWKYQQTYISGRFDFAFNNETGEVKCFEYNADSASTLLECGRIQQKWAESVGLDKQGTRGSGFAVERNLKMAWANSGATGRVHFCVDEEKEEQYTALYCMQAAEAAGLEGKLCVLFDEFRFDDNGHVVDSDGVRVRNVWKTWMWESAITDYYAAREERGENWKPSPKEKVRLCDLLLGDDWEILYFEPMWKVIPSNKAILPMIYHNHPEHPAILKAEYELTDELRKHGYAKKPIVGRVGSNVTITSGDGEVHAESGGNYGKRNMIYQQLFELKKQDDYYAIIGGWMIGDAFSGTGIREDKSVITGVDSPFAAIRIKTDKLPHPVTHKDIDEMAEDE
Sequence of TcTryS (Trypanosoma cruzi trypanothione synthetase) (Q9GT49 whole entry): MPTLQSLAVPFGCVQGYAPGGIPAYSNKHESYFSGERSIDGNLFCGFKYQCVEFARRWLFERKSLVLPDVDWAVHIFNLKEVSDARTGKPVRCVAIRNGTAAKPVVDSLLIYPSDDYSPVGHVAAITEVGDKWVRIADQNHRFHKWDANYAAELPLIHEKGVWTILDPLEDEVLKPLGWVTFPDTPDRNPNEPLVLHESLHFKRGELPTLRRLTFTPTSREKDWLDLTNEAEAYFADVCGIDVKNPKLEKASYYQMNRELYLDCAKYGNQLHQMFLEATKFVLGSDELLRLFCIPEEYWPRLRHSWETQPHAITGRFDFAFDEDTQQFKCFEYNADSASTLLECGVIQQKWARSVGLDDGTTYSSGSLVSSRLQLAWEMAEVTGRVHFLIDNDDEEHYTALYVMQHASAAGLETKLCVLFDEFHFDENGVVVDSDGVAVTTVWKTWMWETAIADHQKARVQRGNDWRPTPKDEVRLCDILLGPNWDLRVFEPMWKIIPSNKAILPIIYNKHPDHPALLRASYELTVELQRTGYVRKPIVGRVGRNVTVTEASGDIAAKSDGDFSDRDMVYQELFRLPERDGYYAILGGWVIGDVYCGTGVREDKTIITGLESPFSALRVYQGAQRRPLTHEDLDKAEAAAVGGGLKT
Sequence of T. b. brucei trypanothione synthetase (TbTryS) (Q8IEX1 entry or part of it): as the sequence (Q8IEX1 1-627) above
Sequence of L. infantum trypanothione synthetase (LiTryS) (A4I2Z3 entry or part of it): as the sequence (A4I2Z3 1-652) above
Sequence of T. cruzi trypanothione synthetase (TcTryS) (Q9GT49 whole entry): as the sequence (Q9GT49 whole entry) above

SMILES: Nc1ncnc2c1ncn2[C@@H]1O[C@H](COP(=O)(O)OP(=O)(O)O)[C@@H](O)[C@H]1O [ADP]
- Ki [1]: 40 ± 5 µM
- Ki [2]: 90 ± 8 µM
- Ki [3]: 60 ± 6 µM
- Ki (CfGspS): 80 µM

SMILES: CNCCNC(=O)CN1C(=O)Cc2c([nH]c3ccc(Br)cc23)-c2ccc(Cl)cc21 [MOL2008]
- inhibition at 30 µM [4]: ~50%
- slope plot, LiTryS, representative dose-response plot [5]: 0.38 ± 0.03
- IC50 [5, 11]: 0.14 ± 0.03 µM
- IC50 ([5]; read-out: LiTryS IC50): < 1 µM
- IC50 [6]: 30 µM and ~30 µM and ≤ 30 µM
- inhibition at 30 µM ([6]; read-out: % TbTryS inhibition ± 2σn-1): ~50%
- EC50 [7]: 4.3 ± 0.7 µM
- EC50 ([8]; Leishmania infantum): 12 µM
- EC50 [8]: 12.6 ± 1.6 µM
- decrease of T(SH)2 content [9]: ≥ 90%
- IC50 (TryS from C. fasciculata): 0.03 µM

SMILES: CNCCNC(=O)CN1C(=O)Cc2c([nH]c3cc(C(F)(F)F)ccc23)-c2ccccc21 [FS-554]
- inhibition at 30 µM [4]: ~50%
- slope plot, LiTryS, representative dose-response plot [5]: 0.37 ± 0.03
- IC50 [5, 11]: 0.32 ± 0.73 µM
- IC50 ([5]; read-out: LiTryS IC50): 0.35 µM
- IC50 [6]: ~75 µM
- inhibition at 75 µM [6]: ~50%
- EC50 [10]: 112.3 ± 1.1 µM
- IC50 (LiTryS): 0.35 µM
